Experiments:
IL-2 = IL-2 production by T cells (anti-CD3 stimulated, ELISA); assay type: cell-based; settings: T-cell, one collective range stated for the tested compounds, read-out: EC50 values for stimulating the production of IL-2
Experimental: 5.48.2 […] and MIP-3α Production by T Cells
PBMC are depleted of adherent monocytes by placing 1×10^8 PBMC in 10 ml complete medium (RPMI 1640 supplemented with 10% heat-inactivated fetal bovine serum, 2 mM L-glutamine, 100 U/ml penicillin, and 100 μg/ml streptomycin) per 10 cm tissue culture dish, in 37° C., 5% CO2 incubator for 30-60 minutes. The dish is rinsed with medium to remove all non-adherent PBMC. T cells are purified by negative selection using the following antibody (Pharmingen) and Dynabead (Dynal) mixture for every 1×10^8 non-adherent PBMC: 0.3 ml Sheep anti-mouse IgG beads, 15 μl anti-CD16, 15 μl anti-CD33, 15 μl anti-CD56, 0.23 ml anti-CD19 beads, 0.23 ml anti-HLA class II beads, and 56 μl anti-CD14 beads. The cells and bead/antibody mixture is rotated end-over-end for 30-60 minutes at 4° C. Purified T cells are removed from beads using a Dynal magnet. Typical yield is about 50% T cells, 87-95% CD3^+ by flow cytometry.
Tissue culture 96-well flat-bottom plates are coated with anti-CD3 antibody OKT3 at 5 μg/ml in PBS, 100 μl per well, incubated at 37° C. for 3-6 hours, then washed four times with complete medium 100 μl/well just before T cells are added. Compounds are diluted to 20 times of final in a round bottom tissue culture 96-well plate. Final concentrations are about 10 μM to about 0.00064 μM. A 10 mM stock of compounds provided herein is diluted 1:50 in complete for the first 20× dilution of 200 μM in 2% DMSO and serially diluted 1:5 into 2% DMSO. Compound is added at 10 μl per 200 μl culture, to give a final DMSO concentration of 0.1%. Cultures are incubated at 37° C., 5% CO2 for 2-3 days, and supernatants analyzed for IL-2 and MIP-3α by ELISA (R&D Systems). IL-2 and MIP-3 cc levels are normalized to the amount produced in the presence of an amount of a compound provided herein, and EC50s calculated using non-linear regression, sigmoidal dose-response, constraining the top to 100% and bottom to 0%, allowing variable slope (GraphPad Prism v3.02).
Abilities of certain compounds for stimulating the production of IL-2 were determined using procedures substantially similar to those described in Section 5.48.2, above.

Namalwa AG4 cells = test: Cell proliferation assay (3H-thymidine incorporation); assay type: cell-based; settings: one collective range stated for the tested compounds, read-out: IC50 values for inhibiting proliferation of Namalwa AG4 cells
Experimental: 5.48.3 Cell Proliferation Assay
Cell lines Namalwa, MUTZ-5, and UT-7 are obtained from the Deutsche Sammlung von Mikroorganismen und Zellkulturen GmbH (Braunschweig, Germany). The cell line KG-1 is obtained from the American Type Culture Collection (Manassas, Va., USA). Cell proliferation as indicated by ^3H-thymidine incorporation is measured in all cell lines as follows.
Cells are plated in 96-well plates at 6000 cells per well in media. The cells are pre-treated with compounds at about 100, 10, 1, 0.1, 0.01, 0.001, 0.0001 and 0 μM in a final concentration of about 0.25% DMSO in triplicate at 37° C. in a humidified incubator at 5% CO2 for 72 hours. One microcurie of 3H-thymidine (Amersham) is then added to each well, and cells are incubated again at 37° C. in a humidified incubator at 5% CO2 for 6 hours. The cells are harvested onto UniFilter GF/C filter plates (Perkin Elmer) using a cell harvester (Tomtec), and the plates are allowed to dry overnight. Microscint 20 (Packard) (25 μl/well) is added, and plates are analyzed in TopCount NXT (Packard). Each well is counted for one minute. Percent inhibition of cell proliferation is calculated by averaging all triplicates and normalizing to the DMSO control (0% inhibition). Each compound is tested in each cell line in three separate experiments. Final IC50s are calculated using non-linear regression, sigmoidal dose-response, constraining the top to 100% and bottom to 0%, allowing variable slope. (GraphPad Prism v3.02).
Abilities of certain compounds for inhibiting proliferation of Namalwa AG4 cells were determined using procedures substantially similar to those described in Section 5.48.3, above.

Compound | EC50 (IL-2) | IC50 (Namalwa AG4 cells) | melting point
Cc1nc2cc(Cl)ccc2c(=O)n1C1CCC(=O)NC1=O (centres unmarked) [3-(7-chloro-2-methyl-4-oxo-4H-quinazolin-3-yl)-piperidine-2,6-dione] | 100 to 3500 nM | 10 to 5500 nM | 291 to 293 °C
Cc1nc2cc(F)ccc2c(=O)n1C1CCC(=O)NC1=O (centres unmarked) [3-(7-fluoro-2-methyl-4-oxo-4H-quinazolin-3-yl)-piperidine-2,6-dione] | 100 to 3500 nM | 10 to 5500 nM | 243 to 245 °C
Cc1nc2ccc(CNC(=O)Nc3ccc(OC(F)(F)F)cc3)cc2c(=O)n1C1CCC(=O)NC1=O (centres unmarked) [1-[3-(2,6-dioxo-piperidin-3-yl)-2-methyl-4-oxo-3,4-dihydro-quinazolin-6-ylmethyl]-3-(4-trifluoromethoxy-phenyl)-urea] | 100 to 3500 nM | 10 to 5500 nM | 201 to 203 °C
Cc1nc2ccc(O)cc2c(=O)n1C1CCC(=O)NC1=O (centres unmarked) [3-(6-hydroxy-2-methyl-4-oxo-4H-quinazolin-3-yl)-piperidine-2,6-dione] | 100 to 3500 nM | – | 315 to 317 °C
Cc1nc2cc(Br)ccc2c(=O)n1C1CCC(=O)NC1=O (centres unmarked) [3-(7-bromo-2-methyl-4-oxo-4H-quinazolin-3-yl)-piperidine-2,6-dione] | 100 to 3500 nM | 10 to 5500 nM | –
CCCCCCNC(=O)NCc1ccc2nc(C)n(C3CCC(=O)NC3=O)c(=O)c2c1 (centres unmarked) [1-[3-(2,6-dioxo-piperidin-3-yl)-2-methyl-4-oxo-3,4-dihydro-quinazolin-6-ylmethyl]-3-hexyl-urea] | 100 to 3500 nM | 10 to 5500 nM | 220 to 222 °C
Cc1nc2ccc(N)cc2c(=O)n1C1CCC(=O)NC1=O (centres unmarked) [3-(6-amino-2-methyl-4-oxo-4H-quinazolin-3-yl)-piperidine-2,6-dione] | 100 to 3500 nM | 10 to 5500 nM | –
Cc1nc2cc(N)ccc2c(=O)n1C1CCC(=O)NC1=O (centres unmarked) [3-(7-amino-2-methyl-4-oxo-4H-quinazolin-3-yl)-piperidine-2,6-dione] | 100 to 3500 nM | 10 to 5500 nM | –
